Measured values published in PubChem BioAssay AID1963849 (Molecular Pharmacology Branch, DTP, NCI, 2024).

System: 299254-011-R-J1-PDC complex spheroid viability
Assay: Anticancer human tumor 299254-011-R-J1-PDC patient-derived melanoma cell line growth inhibition [POLQ]
Details: for IC50: curve of first compound; for viability, T/C: stronger effect = lower value
Outline: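 Growth inhibition in 3D: complex spheroids (tumor PDC, HUVEC, MSC) treated with POLQ inhibitor combinations; where Cmax unknown, highest tested concentration 10 microM, except SN-38 at 1 microM.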

[1] = second compound 0.0316 µM, first compound 0.0316 µM
[2] = second compound 0.0316 µM, first compound 0.1 µM
[3] = second compound 0.0316 µM, first compound 0.316 µM
[4] = second compound 0.0316 µM, first compound 1 µM
[5] = second compound 0.0316 µM, first compound 3.16 µM
[6] = second compound 0.0316 µM, first compound 10 µM
[7] = second compound 0.1 µM, first compound 0.0316 µM
[8] = second compound 0.1 µM, first compound 0.1 µM
[9] = second compound 0.1 µM, first compound 0.316 µM
[10] = second compound 0.1 µM, first compound 1 µM
[11] = second compound 0.1 µM, first compound 3.16 µM
[12] = second compound 0.1 µM, first compound 10 µM
[13] = second compound 0.316 µM, first compound 0.0316 µM
[14] = second compound 0.316 µM, first compound 0.1 µM
[15] = second compound 0.316 µM, first compound 0.316 µM
[16] = second compound 0.316 µM, first compound 1 µM
[17] = second compound 0.316 µM, first compound 3.16 µM
[18] = second compound 0.316 µM, first compound 10 µM
[19] = second compound 1 µM, first compound 0.0316 µM
[20] = second compound 1 µM, first compound 0.1 µM
[21] = second compound 1 µM, first compound 0.316 µM
[22] = second compound 1 µM, first compound 1 µM
[23] = second compound 1 µM, first compound 3.16 µM
[24] = second compound 1 µM, first compound 10 µM
[25] = second compound 3.16 µM, first compound 0.0316 µM
[26] = second compound 3.16 µM, first compound 0.1 µM
[27] = second compound 3.16 µM, first compound 0.316 µM
[28] = second compound 3.16 µM, first compound 1 µM
[29] = second compound 3.16 µM, first compound 3.16 µM
[30] = second compound 3.16 µM, first compound 10 µM
[31] = second compound 10 µM, first compound 0.0316 µM
[32] = second compound 10 µM, first compound 0.1 µM
[33] = second compound 10 µM, first compound 0.316 µM
[34] = second compound 10 µM, first compound 1 µM
[35] = second compound 10 µM, first compound 3.16 µM
[36] = second compound 10 µM, first compound 10 µM
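Further: spheroids exposed to drugs for one week before measurement.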
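Wherever viability, T/C is given: percent viability relative to DMSO vehicle control taken as 100%.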

Molecule CCc1cc2c(N3CCc4c(cc(Cn5ccnc5)cc4-c4cn(C)nc4C(F)(F)F)C3=O)ccnc2c(OC)n1 + Cc1cccc(N(C)C(=O)C2C(O)CCN2c2nc(C)cc(C(F)(F)F)c2C#N)c1 has an IC50 (second compound 0.0316 µM) greater than 10000 nM, an IC50 (second compound 0.1 µM) greater than 10000 nM and an IC50 (second compound 0.316 µM) greater than 10000 nM. For the same molecule, the IC50 (second compound 1 µM) was greater than 10000 nM, the IC50 (second compound 3.16 µM) was greater than 10000 nM and the IC50 (second compound 10 µM) was greater than 10000 nM. The viability, T/C [1] was 97.6%, the viability, T/C [2] was 119% and the viability, T/C [3] was 98.9%. For the same molecule, the viability, T/C [4] was 106%, the viability, T/C [5] was 109% and the viability, T/C [6] was 80.4%. The viability, T/C [7] was 98.7%, the viability, T/C [8] was 102% and the viability, T/C [9] was 99.7%. It also gave a viability, T/C [10] of 99.4%, a viability, T/C [11] of 99.1% and a viability, T/C [12] of 86.1%. It also gave a viability, T/C [13] of 98.5%, a viability, T/C [14] of 91.2% and a viability, T/C [15] of 116%. For the same molecule, the viability, T/C [16] was 112%, the viability, T/C [17] was 84.2% and the viability, T/C [18] was 72.8%. For the same molecule, the viability, T/C [19] was 110%, the viability, T/C [20] was 96.9% and the viability, T/C [21] was 113%. The viability, T/C [22] was 107%, the viability, T/C [23] was 91% and the viability, T/C [24] was 86%. It also gave a viability, T/C [25] of 106%, a viability, T/C [26] of 96.9% and a viability, T/C [27] of 101%. For the same molecule, the viability, T/C [28] was 105%, the viability, T/C [29] was 95.5% and the viability, T/C [30] was 76.4%. It also gave a viability, T/C [31] of 94%, a viability, T/C [32] of 112% and a viability, T/C [33] of 105%. The viability, T/C [34] was 82.1%, the viability, T/C [35] was 75.7% and the viability, T/C [36] was 79%.

Nc1ccn(C2OC(CO)C(O)C2(F)F)c(=O)n1 (centres undefined) + Nc1ccc(C#CCN(C(=O)Cc2ncc(C(F)(F)F)cc2C(F)(F)F)c2ccc(F)cc2)nn1 gave an IC50 (second compound 0.0316 µM) of 123 nM, an IC50 (second compound 0.1 µM) of 351 nM and an IC50 (second compound 0.316 µM) of 82.7 nM. The IC50 (second compound 1 µM) was 252 nM, the IC50 (second compound 3.16 µM) was 144 nM and the IC50 (second compound 10 µM) was 277 nM. The viability, T/C [1] was 71.9%, the viability, T/C [2] was 54.2% and the viability, T/C [3] was 33.7%. The viability, T/C [4] was 50.7%, the viability, T/C [5] was 51.7% and the viability, T/C [6] was 47.1%. The viability, T/C [7] was 60.7%, the viability, T/C [8] was 54.7% and the viability, T/C [9] was 49.6%. It also gave a viability, T/C [10] of 48.5%, a viability, T/C [11] of 46% and a viability, T/C [12] of 46.9%. The viability, T/C [13] was 90%, the viability, T/C [14] was 41.4% and the viability, T/C [15] was 49.6%. The viability, T/C [16] was 37.7%, the viability, T/C [17] was 43.7% and the viability, T/C [18] was 38.2%. For the same molecule, the viability, T/C [19] was 86.2%, the viability, T/C [20] was 69.2% and the viability, T/C [21] was 45.1%. For the same molecule, the viability, T/C [22] was 45.7%, the viability, T/C [23] was 48% and the viability, T/C [24] was 36.4%. It also gave a viability, T/C [25] of 73.7%, a viability, T/C [26] of 51.5% and a viability, T/C [27] of 47%. It also gave a viability, T/C [28] of 42.1%, a viability, T/C [29] of 37.7% and a viability, T/C [30] of 43.5%. The viability, T/C [31] was 80%, the viability, T/C [32] was 91.5% and the viability, T/C [33] was 45.4%. The viability, T/C [34] was 36.9%, the viability, T/C [35] was 39.7% and the viability, T/C [36] was 45%.
